Measured values from PubChem BioAssay (NCI).
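Assay format: 96-well plates, 48-hour exposure. TGI marks complete inhibition of growth.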

Assays:
Assay in all cases: NCI-60 cell line screen, 48 h
[1] = tested on: DMS 273 small cell lung
[2] = tested on: M19-MEL melanoma
[3] = tested on: HOP-18 NSCLC

Measured: TGI

CC1(c2ccc[n+](Cc3ccccc3)c2)OCCO1
> 100 µM: all assays above
